For data set [1], the system named is HeLa cells. The data set is described as follows: Immunofluorescence of p-ENSA (Ser67) in nocodazole-arrested HeLa cells. In kind it is cell-based, human. The source says:
To more directly address the presence of other off-target effects, and / or any level of compound toxicity, we conducted a more comprehensive phenotypic analysis of GKI-1 and GWL siRNA (siGWL, Figure 5A) treated cells by immunofluorescence (IF) and time-lapse video microscopy. Using an antibody that specifically detects phosphorylation of ENSA-Ser67 (p-ENSA), we established an IF assay in order to measure GWL kinase activity in HeLa cells. We treated the cells with nocodazole in order to arrest cells in mitosis, the cell cycle stage where GWL is maximally active (Figure 5B).
Figure 5 In cellulo efficacy of GKI-1 in HeLa cells A. HeLa cells were transfected with either non-targeting (siSCR) or GWL targeting siRNAs (siGWL). GWL and loading control protein (Tubulin) were detected by western analysis. B., C. HeLa cells treated with siSCR or siGWL (48-h) were arrested in mitosis using nocodazole and treated with DMSO, 25 μM or 50 μM GKI-1. […] (C) Quantitation of the IF p-ENSA and GWL signals was performed using the ScanR High-Content Screening Station. […] Time-lapse videos were generated using ImageJ and cellular phenotypes recorded: Mitotic events (D), mitotic arrest (E, F) and failed cytokinesis G. F. Kymographs showing an example of typical phenotypes were generated by capturing images every 5 minutes for 80 minutes. […]
HeLa cells were plated on glass coverslips and then transfected with siRNAs using Lipofectamine RNAiMax [ThermoFisher Scientific]. […] Time-lapse videos for treated cells were recorded on an Olympus IX3 microscope fitted with an Ocra-Flash 4.0 CMOS camera [Hamatsu]. […]
hGWLFL, 100 µl of lysate was diluted 5-fold with IP buffer and combined with 3 µl anti-Flag M2 magnetic Dynabeads [Sigma-Aldrich] overnight at 4 °C. […] The reaction was stopped by adding SDS loading buffer and analysed by western blot: p-ENSA and GWL levels were detected using the anti-phospho(Ser67)-ENSA and anti-MASTL(GWL, Prestige) antibodies. Activity was measured as the p-ENSA/GWL ratio and % kinase activity was normalised to the DMSO control. […]

Data set [2] deals with HeLa cells. As to the kind of experiment: Time-lapse video microscopy of HeLa cells. Type of data set: cell-based, human. As for the experimental part: Figure 5 In cellulo efficacy of GKI-1 in HeLa cells A. HeLa cells were transfected with either non-targeting (siSCR) or GWL targeting siRNAs (siGWL). GWL and loading control protein (Tubulin) were detected by western analysis. B., C. HeLa cells treated with siSCR or siGWL (48-h) were arrested in mitosis using nocodazole and treated with DMSO, 25 μM or 50 μM GKI-1. Immunofluorescent staining of p-ENSA (Red) and GWL (Green) was achieved using anti-phospho(Ser67)-ENSA and anti-MASTL(GWL, RIPLY 74C) antibodies and DAPI was used to stain the nucleus (Blue). (C) Quantitation of the IF p-ENSA and GWL signals was performed using the ScanR High-Content Screening Station. The Circularity and Total DAPI parameters were used to identify mitotic cells. D., E. HeLa cells treated with siSCR or siGWL (48-h) were treated with DMSO, 25 or 50 μM GKI-1. 4-h after treatment, μ-slides were mounted onto an Olympus IX73 microscope, within a temperature-controlled 37°C chamber maintained at 5% CO2, and images were acquired every 5-min for 8.5-h. Time-lapse videos were generated using ImageJ and cellular phenotypes recorded: Mitotic events (D), mitotic arrest (E, F) and failed cytokinesis G. F. Kymographs showing an example of typical phenotypes were generated by capturing images every 5 minutes for 80 minutes. Image sequences were chosen to start just before mitotic entry. (B - G) A total of 3 - 5 biological replicates were completed per condition and the t-test statistical module of Prism 6.0 was used to determine p-values (ns (not statistically significant): P > 0.05; *: P ≤ 0.05; **: P ≤ 0.01; ***: P ≤ 0.001).
HeLa cells were plated on glass coverslips and then transfected with siRNAs using Lipofectamine RNAiMax [ThermoFisher Scientific]. 48 hours after treatment, cells to be used for immunofluorescence were treated with nocodozole and DMSO, or GKI-1. After fixing and staining with antibodies, cells were visualised with a ScanR High Content Screening Station [Olympus Life Science]. Time-lapse videos for treated cells were recorded on an Olympus IX3 microscope fitted with an Ocra-Flash 4.0 CMOS camera [Hamatsu]. […]
Immunofluorescence and Time-lapse video microscopy
2.5 X 105 HeLa cells were plated onto glass coverslips in a 6-well plate, or 4-well µ-slides [Ibidi GmbH] were seeded with 5 X 104 cells and then transfected with Qiagen AllStars negative control or Hs_MASTL_6 siRNAs (14) using Lipofectamine RNAiMax [ThermoFisher Scientific]. Media was exchanged with fresh media the next day. 48 hours after siRNA treatment, only cells to be used for immunofluorescence (IF) were treated with nocodazole (200 ng/mL) and DMSO or GKI-1 at the indicated concentration. For IF, cells were fixed, stained with primary mouse anti-GWL and rabbit anti-p-ENSA antibodies, secondary Alexa Fluor 647-conjugated anti-rabbit and Alexa Fluor 488-conjugated anti-mouse antibodies, DAPI and mounted onto glass microscope slides using Diamond Antifade Mountant [Molecular Probes, ThermoFisher Scientific]. Quantitation of IF images was performed using the ScanR High-Content Screening Station [Olympus Life Science] which acquired 220, 40x images per cover slip. Data were normalised against the AllStars negative control siRNA treated cells and values obtained from three biological replicates were reported as the mean ± 1 S.D. To assist with selecting mitotic cells, ScanR imaging software was utilised to gate for mitotic cells using the circularity factor and total […]
To produce time-lapse videos, after 48 hours and cell treatment with DMSO or compound (cells were treated with GKI-1 for 4-h before image acquisition) cells plated in 4-well µ-slides were imaged every 5 minutes for 8.5 hours on an Olympus IX73 microscope, using a 40 x 0.95NA air objective, and recorded on an Orca-Flash 4.0 CMOS camera [Hamatsu]. The computer program Fiji (http://www.fiji.sc/Fiji) was used to generate videos from […]
image sequence TIF files. […]

The test system of data set [3] is 50 different protein kinases. As to the kind of experiment: Kinase inhibition profiling against 50 protein kinases (University of Dundee). Type of data set: biochemical, human. The conditions noted are these: 25 μM. As for the experimental part: In order to gain a greater understanding of potential off-target interactions of GKI-1, we undertook more rigorous kinase inhibition profiling (International Centre for Kinase Profiling, University of Dundee) where GKI-1 was tested against 50 different protein kinases, carefully selected to provide representative sampling across the human kinome.
Figure S9. Kinase phylogeny vs GKI-1 inhibitory activity
Kinome render [Manning et al. (2002)] was used to generate a phylogenetic map with overlapping 25
µM GKI-1 inhibitory activity plotted against 50 kinases, carefully selected to represent the human
kinome. Illustration reproduced courtesy of Cell Signaling Technology, Inc. (www.cellsignal.com)
(1 picture or pasted object on this page, not shown here)

Regarding `Clc1ccc(Nc2cccc(-c3cn[nH]c3)c2)cc1` [GKI-1, N-(4-chlorophenyl)-3-(1H-pyrazol-4-yl)aniline], in the data set on HeLa cells [1] (25 μM, nocodazole-arrested HeLa cells), the “reduction in p-ENSA levels compared to control” value is given as 2 fold. The p-ENSA signal entry with HeLa cells [1] (50 μM, nocodazole-arrested HeLa cells) is “levels comparable to siGWL treated cells”. In the data set with HeLa cells [1] (co-incubation with nocodazole, 25 and 50 μM), the “levels of p-ENSA by immunofluorescence” value was “dose-dependent decrease”. In the data set on HeLa cells [2] (50 μM), the mitotic events entry is reported as “effect comparable to siGWL treatment” and the “time remaining in prometaphase/metaphase” value is recorded as “two to six”. Moreover, in the data set with HeLa cells [2] (25 and 50 μM, vs scrambled control siRNA), the mitotic events result is “general decrease in mitotic events”. The failure in cytokinesis result with HeLa cells [2] (GKI-1 treated cells compared with GWL depletion) is given as “only rarely observed”. For the same compound, in the data set on HeLa cells [2] (blue to green spectrum, live cell imaging), the “sensitivity of treated cells to fluorescent light” value is recorded as “highly sensitive”. Further, the mitotic progression result in the data set on HeLa cells [2] (relative to SCR-treated cells) was “significant delay in mitotic progression”. Besides, the “off-target interactions in kinase panel” value in data set [3] is “several off-target interactions”.
